Results on one compound are retold here after US20260102413A1, “TREATING PAIN ASSOCIATED WITH CENTRAL SENSITIZATION” (Medicon Pharmaceuticals, Inc., priority 2022, published 2026).

Assay [1] relates to mice with paclitaxel-induced CIPN. Put plainly: von Frey PWT, paclitaxel CIPN model, orally administered compounds. The assay is classed as in vivo, mouse. The conditions noted are these: paclitaxel 8 mg/kg x4; oral gavage 3x/day 7 days: PS 50, sulindac 33, PN 65, naproxen 35 mg/kg; day 7.
Source text: CIPN was induced in mice with chemotherapeutic agents using established protocols (Carozzi et al, 2010; Currie et al, 2019; Eldridge et al, 2020). […] This dosing regimen of paclitaxel produces pain associated with CIPN with time courses that are similar to those of pain after paclitaxel administration in cancer patients.
Group 1: naïve mice (i.e. no paclitaxel, n=8) • 2. Group 2: paclitaxel only (n=8) • 3. Group 3: paclitaxel plus vehicle (n=8) • 4. […] Group 5: paclitaxel pluse sulindac (n=8)
The PWT test was performed on day 7.
Phospho-naproxen (PN) and naproxen were given by oral gavage, three times a day for 7 days. Their doses were as follows: PN, 65 mg/kg; naproxen, 35 mg/kg (equimolar to PN). The response of mechanical allodynia to phospho-naproxen (PN) and naproxen was tested on day 7.
(§1) This dosing regimen of paclitaxel produces pain associated with CIPN with time courses that are similar to those of pain after paclitaxel administration in cancer patients.
Phospho-ibuprofen (PI) (Formula III), phospho-glycerol-ibuprofen (PGI) (Formula LXXI), phospho-ibuprofen-amide (PIA) (Formula XI), and ibuprofen were given by oral gavage, three times a day for 6 days. Their doses were as follows: ibuprofen, 40 mg/kg; PI, 80 mg/kg; PIA, 80 mg/kg; all three were equimolar.
The response of mechanical allodynia to these compounds was tested on day 6, using the PWT test.
as §1
NO-sulindac (Formula XLIV), HS-sulindac (Formula XXXIV), platinum-sulindac (Formula LXVII), and NOSH-1 (Formula LIX) were given by oral gavage, three times a day throughout the study period. Their doses were all 100 mg/kg.
The response of mechanical allodynia to these compounds was tested on the days set out in the table below, via the PWT test.
LXIX was given by oral gavage, once a day for 14 days at a dose of 100 mg/kg.
The response of mechanical allodynia to these compounds was tested on day 14, via the PWT test.

The test system of the next assay is STZ-diabetic rats. The assay is classed as in vivo, rat. The conditions noted are these: PS 8% hydrogel, sulindac 0.7% hydrogel 3x/day day −2 to 28; lidocaine cream 5% once 30 min before; STZ day 0; day 28. An excerpt:
The animal model corresponds to that used for Example 4, but using a prevention protocol. As in Example 4, the outcome measure, determining the effect of the treatment on the prevention of mechanical allodynia, was the PWT test, using von Frey filaments. The measurements were taken at day −3, before treatment or induction of neuropathic pain associated with DPN, and again at the end of the study period (day 28).
The rats were randomised into treatment groups as follows, all having an average body weight of about 225 g. • 1. Group 1: naïve rats (n=6) • 2. Group 2: STZ only (n=8) • 3. Group 3: STZ plus vehicle (n=8) • 4. […] Group 5: STZ plus sulindac 0.7% (n=8) • 6. Group 6: STZ plus lidocaine cream 5% (n=8)
Each treatment group was subjected to a PWT assessment at day −3 in order to determine the baseline of mechanical allodynia.
For those rats in the lidocaine treatment group, lidocaine cream was applied only once to both hind paws of the rats 30 min before the final PWT measurement on day 28. On day 0, neuropathic pain associated with DPN was induced with the administration of STZ, and the blood glucose was checked on day 3.

Regarding `CC1=C(CC(=O)O)c2cc(F)ccc2/C1=C\c1ccc([S+](C)[O-])cc1` (centres unmarked) [sulindac, reference compound], the “PWT, g Mean ± SEM” value in assay [1] is on record as 0.56 ± 0.05 g. The “von Frey, gm mean ± SEM” value in the assay with STZ-diabetic rats was found to be 27.7 ± 1.4 gm.
